Reference: ChEMBL document CHEMBL1201862, “PubChem BioAssay data set” (2004)
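Tested at 5 concentrations; 48 h exposure; 96-well plates; endpoints linearly interpolated, else capped at highest concentration. GI50 = concentration required for 50% inhibition of growth.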 The source made the active and inactive calls. No stated cut-off is given here; in the data, active = GI50 up to about 1.1 µM and inactive = higher.

Tests used:
Assay in all cases: NCI-60 cell line screen, 48 h
UO-31 = system: UO-31
A498 = system: A498
HCT-15 = system: HCT-15
MOLT-4 = system: MOLT-4
SK-MEL-2 = system: SK-MEL-2
NCI-H522 = system: NCI-H522
RXF 393 = system: RXF 393
U-251 = system: U-251
RPMI-8226 = system: RPMI-8226
MCF7 = system: MCF7
TK-10 = system: TK-10
HT-29 = system: HT-29
SK-MEL-28 = system: SK-MEL-28
HL-60 = system: HL-60
SF-295 = system: SF-295
UACC-257 = system: UACC-257
Hs-578T = system: Hs-578T
Malme-3M = system: Malme-3M
SW-620 = system: SW-620
CCRF-CEM = system: CCRF-CEM
SN12C = system: SN12C
HCT-116 = system: HCT-116
CAKI-1 = system: CAKI-1
LOX IMVI = system: LOX IMVI
NCI-H23 = system: NCI-H23
NCI/ADR-RES = system: NCI/ADR-RES
SR = system: SR
OVCAR-4 = system: OVCAR-4
ACHN = system: ACHN
K562 = system: K562
SF-539 = system: SF-539
IGROV-1 = system: IGROV-1
MDA-N = system: MDA-N
OVCAR-3 = system: OVCAR-3
NCI-H460 = system: NCI-H460
786-0 = system: 786-0
DU-145 = system: DU-145
HOP-62 = system: HOP-62
EKVX = system: EKVX
SNB-19 = system: SNB-19
SNB-75 = system: SNB-75
A549 = system: A549
SF-268 = system: SF-268
OVCAR-8 = system: OVCAR-8
UACC-62 = system: UACC-62
COLO 205 = system: COLO 205
HOP-92 = system: HOP-92
PC-3 = system: PC-3
OVCAR-5 = system: OVCAR-5
BT-549 = system: BT-549
MDA-MB-435 = system: MDA-MB-435
HCC 2998 = system: HCC 2998
M14 = system: M14
KM12 = system: KM12
SK-MEL-5 = system: SK-MEL-5
SK-OV-3 = system: SK-OV-3
NCI-H226 = system: NCI-H226
MDA-MB-231 = system: MDA-MB-231

Measured: GI50

O=c1oc2ccccc2cc1-c1nnc(-c2ccccc2)s1
inactive: UO-31 55.6 µM | A498 15.1 µM | MOLT-4 19.1 µM | SK-MEL-2 > 48.8 µM | NCI-H522 13.7 µM | RXF 393 17.1 µM | U-251 12.6 µM | RPMI-8226 > 55.7 µM | MCF7 7.67 µM | TK-10 > 36.6 µM | HT-29 10.1 µM | SK-MEL-28 98.6 µM | SF-295 28.2 µM | UACC-257 > 100 µM | Hs-578T > 64.4 µM | Malme-3M > 100 µM | SW-620 12.1 µM | CCRF-CEM 40.3 µM | SN12C 60.5 µM | HCT-116 20.3 µM | CAKI-1 > 64.9 µM | LOX IMVI > 72.8 µM | NCI-H23 > 51.2 µM | NCI/ADR-RES 12.1 µM | OVCAR-4 > 68.2 µM | ACHN 32 µM | K562 9.89 µM | SF-539 14.5 µM | IGROV-1 22.4 µM | MDA-N 2.54 µM | OVCAR-3 14.5 µM | NCI-H460 28.1 µM | 786-0 17.3 µM | DU-145 > 100 µM | HOP-62 16.1 µM | EKVX > 58.9 µM | SNB-19 41.6 µM | SNB-75 15.5 µM | A549 38.5 µM | SF-268 > 57.9 µM | OVCAR-8 22.1 µM | UACC-62 > 100 µM | COLO 205 > 53 µM | HOP-92 > 100 µM | PC-3 > 76.6 µM | OVCAR-5 > 100 µM | BT-549 > 68.7 µM | MDA-MB-435 1.65 µM | HCC 2998 12 µM | M14 > 56.1 µM | KM12 4.61 µM | SK-MEL-5 > 71.3 µM | SK-OV-3 48.6 µM | NCI-H226 > 56 µM | MDA-MB-231 19.1 µM
6.73 µM: HCT-15
active: HL-60 0.0279 µM | SR 0.971 µM

CCCCc1c2c(nc3c1CCCC3O)CCCC2 (centres undefined)
inactive: UO-31 > 100 µM | A498 > 100 µM | MOLT-4 71 µM | SK-MEL-2 > 100 µM | NCI-H522 > 100 µM | RXF 393 > 100 µM | U-251 > 100 µM | RPMI-8226 > 100 µM | MCF7 > 100 µM | TK-10 > 100 µM | HT-29 85.3 µM | HL-60 > 100 µM | SF-295 > 100 µM | UACC-257 > 100 µM | Hs-578T > 100 µM | Malme-3M > 100 µM | SW-620 > 100 µM | CCRF-CEM 72.6 µM | SN12C > 100 µM | HCT-116 > 100 µM | CAKI-1 > 100 µM | NCI-H23 > 100 µM | NCI/ADR-RES > 100 µM | SR 5.11 µM | OVCAR-4 > 100 µM | ACHN 80 µM | K562 84.3 µM | SF-539 > 100 µM | IGROV-1 > 100 µM | MDA-N > 100 µM | OVCAR-3 71.8 µM | NCI-H460 > 100 µM | 786-0 > 100 µM | DU-145 > 100 µM | HOP-62 > 100 µM | EKVX 73.6 µM | SNB-19 > 100 µM | SNB-75 > 100 µM | A549 > 100 µM | SF-268 > 100 µM | OVCAR-8 > 100 µM | UACC-62 > 100 µM | COLO 205 > 100 µM | HOP-92 79.4 µM | PC-3 > 100 µM | OVCAR-5 > 100 µM | BT-549 > 100 µM | MDA-MB-435 > 100 µM | HCC 2998 > 100 µM | M14 > 100 µM | KM12 > 100 µM | SK-MEL-5 > 100 µM | SK-OV-3 > 100 µM | NCI-H226 > 100 µM | MDA-MB-231 > 100 µM
> 100 µM: HCT-15
